Measured values from patent US20250129103A1, “METHODS FOR TREATMENT OF CANCER” (Frontier Medicines Corporation, priority 2022, published 2025).
Converted amounts (≈) assume the structure as drawn.

Experiments:
[1] = biological target: KRAS G12C (GMPPNP-loaded) and PI3Ka (Ras-binding domain) interaction (Homo sapiens (Human), UniProt P01116, C118S/C51S/C80L/G12C); assay: Inhibition of KRAS G12C and PI3Ka binding (AlphaScreen); details: KRAS G12C loaded with GMPPNP, PI3Ka RBD, 2 hours preincubation; read-out: PI3K RBD K-Ras IC50
Experimental: The AlphaScreen technology was used to determine IC50S for compound inhibition of KRAS G12C (present as the Cys-light (C51S, C80L and C118S), truncated version comprising amino acids 1-169) and PI3Ka interaction. Compounds were diluted in 100% DMSO and each compound concentration was spotted at 200 nl/well onto low volume, white 384 well plates. The KRAS G12C contained a biotin-AviTag and the PI3Ka, as Ras-binding domain (amino acids 157-300, RBD), was His-tagged. KRAS G12C was preloaded with the GTP analogue Guanosine 5′-[β,γ-imido]triphosphate (GMPPNP). The KRAS G12C was diluted in 25 mM Hepes, pH 7.4, 150 mM NaCl, 5 mM MgCl2, 0.01% TritonX-100 and 10 μM GMPPNP and added at 10 ul/well to compound-spotted plates resulting in a DMSO concentration of 2%. Plates were incubated for 2 hours. A mixture of RBD and the AlphaScreen streptavidin donor and nickel chelate acceptor beads diluted in 25 mM Hepes, pH 7.4, 150 mM NaCl, 5 mM MgCl2, 0.01% TritonX-100 and 2% DMSO was then added at 10 ul/well and incubated for 60-90 minutes before the samples were read for emission at 570 nm after excitation of the donor beads at 680 nm. All incubations were performed at room temperature. The final top compound concentration was 50 μM with 1:3 titrations for 10-point dose response curves. Final assay conditions were 1.5 nM KRAS G12C, 100 nM RBD, 1.25 ug/ml of AlphaScreen donor beads and 10 μg/ml AlphaLISA acceptor beads. IC50s were determined using nonlinear regression fit of [inhibitor] vs. response (4 parameters). […]

[2] = biological target: KRAS G12C (GMPPNP-loaded) and cRAF (Ras-binding domain) interaction (Homo sapiens (Human), UniProt P01116, C118S/C51S/C80L/G12C); assay: Inhibition of KRAS G12C and cRAF binding (AlphaScreen); details: KRAS G12C loaded with GMPPNP, cRaf RBD, 2 hours preincubation; read-out: Raf-1 RBD K-Ras IC50
Outline: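 GMPPNP-loaded KRAS G12C in 25 mM Hepes pH 7.4, 150 mM NaCl, 5 mM MgCl2, 0.01% Triton X-100, 10 μM GMPPNP, 2% DMSO, preincubated with compound 2 h at room temperature. cRAF RBD plus AlphaScreen beads then added for 60-90 min; signal read at 570 nm.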

[3] = Determination of kinetic solubility (pH 7.4); assay type: physicochemical; details: phosphate buffer, pH 7.4, aqueous buffer, kinetic from dmso stock, 50 mM phosphate buffer pH 7.4, read-out: Ksol, pH 7.4
Outline: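 Sample mixed with 50 mM phosphate buffer, pH 7.4, vortexed, then shaken 2 h at room temperature and centrifuged. Filtrate analysed by HPLC-UV and LC-MS/MS, with solubility read from peak areas against a standard calibration curve.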

[4] = Determination of logD (1-octanol / phosphate buffer pH 7.4); assay type: physicochemical; details: 1-octanol/phosphate buffer, pH 7.4, pH 7.4, 1-octanol/phosphate buffer; read-out: Log D, pH 7.4
Outline: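 Shake-flask partition between 1-octanol and 100 mM phosphate buffer pH 7.4, each phase presaturated with the other overnight. Tubes shaken 1 h at 800 rpm, room temperature, then centrifuged. Both phases quantified by LCMS and logD calculated from the ratio.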

Chain of KRAS G12C (GMPPNP-loaded) and PI3Ka (Ras-binding domain) interaction (P01116 other isoform, or with tags, fused parts or gaps G12C/C51S/C80L/C118S): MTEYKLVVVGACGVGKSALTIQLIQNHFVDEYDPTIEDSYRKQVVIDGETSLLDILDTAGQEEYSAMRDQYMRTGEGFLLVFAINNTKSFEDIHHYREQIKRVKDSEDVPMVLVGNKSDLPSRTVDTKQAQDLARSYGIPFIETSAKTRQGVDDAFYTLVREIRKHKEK
Chain of KRAS G12C (GMPPNP-loaded) and cRAF (Ras-binding domain) interaction (P01116 other isoform, or with tags, fused parts or gaps G12C/C51S/C80L/C118S): as above

| Compound | IC50 [1] | IC50 [2] | solubility kinetic at 2 h [3] | logD [4] |
| --- | --- | --- | --- | --- |
| Cc1cc(N)nc(C2Cc3nc(OC[C@@]45CCCN4C[C@H](F)C5)nc(N4CCN(C(=O)/C=C/c5nc(C(C)C)no5)[C@@H](CC#N)C4)c3CC2C)c1C(F)(F)F (mixture of isomers) [Example 66, 2-((2S)-4-(7-(6-amino-4-methyl-3-(trifluoromethyl)pyridin-2-yl)-2-(((2R,7aS)-2-fluorotetrahydro-1H-pyrrolizin-7a(5H)-yl)methoxy)-6-methyl-5,6,7,8-tetrahydroquinazolin-4-yl)-1-((E)-3-(3-isopropyl-1,2,4-oxadiazol-5-yl)acryloyl)piperazin-2-yl)acetonitrile] | 10 to 100 nM | 10 to 100 nM |  |  |
| N#CC[C@H]1CN(c2nc(OCC34CCCN3CCC4)nc3c2CCN(c2cccc4cccc(Cl)c24)C3)CCN1C(=O)/C=C/CN1CCOCC1 [Example 11, (S,E)-2-(4-(7-(8-chloronaphthalen-1-yl)-2-((hexahydro-1H-pyrrolizin-7a-yl)methoxy)-5,6,7,8-tetrahydropyrido[3,4-d]pyrimidin-4-yl)-1-(4-morpholinobut-2-enoyl)piperazin-2-yl)acetonitrile] | 10 to 100 nM | < 10 nM |  |  |
| N#CC[C@H]1CN(c2nc(OC[C@@]34CCCN3C[C@H](F)C4)nc3c(F)c(-c4cccc(Cl)c4C4CC4)ncc23)CCN1C(=O)/C=C/CN1CC[C@H](F)C1 [Compound 283] | < 10 nM | < 10 nM |  |  |
| CCc1nccc(/C=C/C(=O)N2CCN(c3nc(OC[C@@]45CCCN4C[C@H](F)C5)nc4c(F)c(-c5cccc6cccc(Cl)c56)ncc34)C[C@@H]2CC#N)n1 [Compound 150] | < 10 nM | < 10 nM |  |  |
| C[C@H]1CN(C/C=C/C(=O)N2CCN(c3nc(OC[C@@]45CCCN4C[C@H](F)C5)nc4c(F)c(-c5cccc6ccc(F)c(Cl)c56)ncc34)C[C@@H]2CC#N)C[C@H](C)O1 [Example 75, 2-((S)-4-(7-(8-chloro-7-fluoronaphthalen-1-yl)-8-fluoro-2-(((2R,7aS)-2-fluorotetrahydro-1H-pyrrolizin-7a(5H)-yl)methoxy)pyrido[4,3-d]pyrimidin-4-yl)-1-((E)-4-((2S,6S)-2,6-dimethylmorpholino)but-2-enoyl)piperazin-2-yl)acetonitrile] | < 10 nM | < 10 nM |  |  |
| CN1CCC1/C=C/C(=O)N1CCN(c2nc(OC[C@@]34CCCN3C[C@H](F)C4)nc3c(F)c(-c4cccc5cccc(Cl)c45)ncc23)C[C@@H]1CC#N (stereo partly shown) [Compound 51] | 10 to 100 nM | 10 to 100 nM |  |  |
| N#CC[C@H]1CN(c2nc(OCC34CCCN3CCC4)nc3c2CCN(c2cccc4cccc(Cl)c24)C3)CCN1C(=O)/C=C/CN1CCC(F)(F)CC1 [Compound 159] | < 10 nM | < 10 nM |  |  |
| N#CC[C@H]1CN(c2nc(OC[C@@]34CCCN3C[C@H](F)C4)nc3c(F)c(-c4cccc5cccc(F)c45)ncc23)CCN1C(=O)/C=C/CN1C[C@H]2C[C@@H]1CO2 [Compound 220] | < 10 nM | < 10 nM |  |  |
| CN(C/C=C/C(=O)N1CCN(c2nc(OCC34CCCN3CCC4)nc3c2CCN(c2cccc4cccc(Cl)c24)C3)C[C@@H]1CC#N)CC1COC1 [Compound 318] | < 10 nM | < 10 nM |  |  |
| CC1(C)CN(C/C=C/C(=O)N2CCN(c3nc(OCC45CCCN4CCC5)nc4c3CCN(c3cccc5cccc(Cl)c35)C4)C[C@@H]2CC#N)CCO1 [Compound 165] | < 10 nM | < 10 nM |  |  |
| Cc1cc(/C=C/C(=O)N2CCN(c3nc(OC[C@@]45CCCN4C[C@H](F)C5)nc4c(F)c(-c5cccc6cccc(Cl)c56)ncc34)C[C@@H]2CC#N)nc(C)n1 [Example 69, 2-((S)-4-(7-(8-chloronaphthalen-1-yl)-8-fluoro-2-(((2R,7aS)-2-fluorotetrahydro-1H-pyrrolizin-7a(5H)-yl)methoxy)pyrido[4,3-d]pyrimidin-4-yl)-1-((E)-3-(2,6-dimethylpyrimidin-4-yl)acryloyl)piperazin-2-yl)acetonitrile] | < 10 nM | < 10 nM |  |  |
| N#CC[C@H]1CN(c2nc(OC[C@@]34CCCN3C[C@H](F)C4)nc3c(F)c(-c4cccc(Cl)c4C4CC4)ncc23)CCN1C(=O)/C=C/CN1[C@@H]2CC[C@H]1COC2 [Compound 100, 2-((S)-1-((E)-4-((1R,5S)-3-oxa-8-azabicyclo[3.2.1]octan-8-yl)but-2-enoyl)-4-(7-(3-chloro-2-cyclopropylphenyl)-8-fluoro-2-(((2R,7aS)-2-fluorotetrahydro-1H-pyrrolizin-7a(5H)-yl)methoxy)pyrido[4,3-d]pyrimidin-4-yl)piperazin-2-yl)acetonitrile] | < 10 nM | < 10 nM |  |  |
| C[C@@H]1CN(C/C=C/C(=O)N2CCN(c3nc(OC[C@@]45CCCN4C[C@H](F)C5)nc4c(F)c(-c5cccc6ccc(F)c(Cl)c56)ncc34)C[C@@H]2CC#N)C[C@H](C)O1 [Example 73, 2-((S)-4-(7-(8-chloro-7-fluoronaphthalen-1-yl)-8-fluoro-2-(((2R,7aS)-2-fluorotetrahydro-1H-pyrrolizin-7a(5H)-yl)methoxy)pyrido[4,3-d]pyrimidin-4-yl)-1-((E)-4-((2S,6R)-2,6-dimethylmorpholino)but-2-enoyl)piperazin-2-yl)acetonitrile] | < 10 nM | < 10 nM |  |  |
| N#CC[C@H]1CN(c2nc(OC[C@@]34CCCN3C[C@H](F)C4)nc3c(F)c(-c4cccc5cccc(Cl)c45)ncc23)CCN1C(=O)/C=C/CN1CCSCC1 [Compound 97, 2-((S)-4-(7-(8-chloronaphthalen-1-yl)-8-fluoro-2-(((2R,7aS)-2-fluorohexahydro-1H-pyrrolizin-7a-yl)methoxy)pyrido[4,3-d]pyrimidin-4-yl)-1-((E)-4-thiomorpholinobut-2-enoyl)piperazin-2-yl)acetonitrile] | < 10 nM | < 10 nM |  |  |
| CC(F)(F)c1noc(/C=C/C(=O)N2CCN(c3nc(OC[C@@]45CCCN4C[C@H](F)C5)nc4c3CCN(c3cccc5cccc(Cl)c35)C4)C[C@@H]2CC#N)n1 [Example 12, 2-((S)-4-(7-(8-chloronaphthalen-1-yl)-2-(((2R,7aS)-2-fluorohexahydro-1H-pyrrolizin-7a-yl)methoxy)-5,6,7,8-tetrahydropyrido[3,4-d]pyrimidin-4-yl)-1-((E)-3-(3-(1,1-difluoroethyl)-1,2,4-oxadiazol-5-yl)acryloyl)piperazin-2-yl)acetonitrile] | < 10 nM | < 10 nM |  |  |
| CCc1c(F)ccc2cccc(-c3ncc4c(N5CCN(C(=O)/C=C/c6ccnc(C)n6)[C@@H](CC#N)C5)nc(OC[C@@]56CCCN5C[C@H](F)C6)nc4c3F)c12 [Compound 227] | < 10 nM | < 10 nM |  |  |
| N#CC[C@H]1CN(c2nc(OC[C@@]34CCCN3C[C@H](F)C4)nc3c(F)c(-c4cccc5ccc(F)c(Cl)c45)ncc23)CCN1C(=O)/C=C/CN1C2COCC1C2 [Example 76, 2-((2S)-1-((E)-4-(3-oxa-6-azabicyclo[3.1.1]heptan-6-yl)but-2-enoyl)-4-(7-(8-chloro-7-fluoronaphthalen-1-yl)-8-fluoro-2-(((2R,7aS)-2-fluorotetrahydro-1H-pyrrolizin-7a(5H)-yl)methoxy)pyrido[4,3-d]pyrimidin-4-yl)piperazin-2-yl)acetonitrile] | < 10 nM | < 10 nM |  |  |
| N#CC[C@H]1CN(c2nc(OCC34CCCN3CCC4)nc3c2CCN(c2cccc4cccc(Cl)c24)C3)CCN1C(=O)/C=C/CN1CC2COCC(C1)O2 [Compound 172] |  | < 10 nM | 119 µg/mL (≈ 158 µM) | 2.1 |
| N#CC[C@H]1CN(c2nc(OC[C@@]34CCCN3C[C@H](F)C4)nc3c(F)c(-c4cccc(Cl)c4C4CC4)ncc23)CCN1C(=O)/C=C/CN1CC2CCC(C1)O2 [Compound 261] |  | 10 to 100 nM | 56.7 µg/mL (≈ 74.7 µM) | 3.14 |
| CC(C)c1noc(/C=C/C(=O)N2CCN(c3nc(OC[C@@]45CCCN4C[C@H](F)C5)nc4c(F)c(-c5nc(N)cc6cccc(Cl)c56)ncc34)C[C@@H]2CC#N)n1 [Compound 122] |  | 10 to 100 nM | 0.44 µg/mL (≈ 0.571 µM) | 3.43 |
